Measurements: PubChem BioAssay (NCI)
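Compound exposure: 48 hours, 5 concentrations, 96-well plates. TGI marks complete inhibition of growth.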

What was measured:
Assay in all cases: NCI tumour cell line growth inhibition, 48 h
DMS 114 small cell lung = tested on: DMS 114 small cell lung
HL-60(TB) leukemia = tested on: HL-60(TB) leukemia
KM20L2 colon = tested on: KM20L2 colon
M19-MEL melanoma = tested on: M19-MEL melanoma
MALME-3M melanoma = tested on: MALME-3M melanoma
SNB-75 CNS = tested on: SNB-75 CNS
UO-31 renal = tested on: UO-31 renal
XF 498 CNS = tested on: XF 498 CNS

Measured: TGI

N#CCCN(c1ccc(C=Nc2ccccc2Cl)cc1)S(=O)(=O)c1ccccc1
> 100 µM: all assays above

CN1CC[C@]2(C)c3cc(O)ccc3CC3CCCC1C32C (some centres not stated)
> 100 µM: all assays above

C[N+]1(C)C/C(=C\c2ccccc2)C(=O)/C(=C/c2ccccc2)C1
> 100 µM: all assays above

O=C1CCCC(=O)N1CCc1c[nH]c2ccccc12
> 100 µM: all assays above
